Measured values from patent publication US20230021483A1, “[…] […] METHOD AND CLASSIFICATION OF PHARMACEUTICAL COMPONENTS BY USING TRANSCRIPTOMES” (National Institutes of Biomedical Innovation, Health and …, priority 2016, published 2023).
“And” between values parts separate entries of the source, which are not always exact repeats. Equal entries are not always repeated.

Experiments:
Assay type in all cases: in vivo, C57BL/6 mice
[1] = test system: inguinal lymph nodes (LN); assay: Whole organ transcriptome (GeneChip microarray) of draining inguinal lymph nodes 6 h after adjuvant administration: sDEGs, gene modules, hierarchical clustering; conditions: lymph node; on adjuvant group (cluster) in LN: key: G1 (interferon signaling); G2 (metabolism of lipids and lipoproteins); G3 (response to stress); G4 (response to wounding); G5 (phosphate-containing compound metabolic process); G6 (phagosome)
[2] = test system: preferentially upregulated genes in LV, SP, LN; assay: Z-score-based differential gene expression analysis (adjuvant group- or adjuvant-associated genes, 40 module mapping, TargetMine annotation)
Outline: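 Gene groups for each organ were built from combined z-score cutoffs across adjuvants, ranging from z>1 to z>3. Scores came from fold changes standardized per gene over the whole organ data set, with the three replicate z-scores added per adjuvant; sums above 3 marked preferential expression.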

LV, SP and LNs = assay: Whole organ transcriptome across organs (adjuvant gene space): gene responses and adjuvant grouping
[3] = ID, LN, samples x1-x3, Module#(LN) 40
[4] = liver (LV), gene group G1, module 20, individual mice x1-x3, route ID/IP/IN

D35: A class CpG ODN (5′-GGTGCATCGATGCAGGGGGG-3′), TLR9 ligand (DNA GGTGCATCGATGCAGGGGGG; chemistry not given here)
adjuvant group (cluster) in LN ([1]; hierarchical clustering): G5 | Number of gene probes with statistically significant changes (sDEGs), LN, Down ([1]; i.d. administration, fold change <0.667, p<0.01, customized PA call=1, 6 h after adjuvant): 12 | Number of gene probes with statistically significant changes (sDEGs), LN, Up ([1]; i.d. administration, fold change >1.5, p<0.01, customized PA call=1, 6 h after adjuvant): 69 | z sum, 1444615_x_at Runx1t1 ([2]; ID, LN, Module#(LN) 1): 3.519 | z sum, 1420894_at Tgfbr1 ([2]; ID, LN, Module#(LN) 3): 3.333 | z sum, 1460069_at Smc6 ([2]; ID, LN, Module#(LN) 7): 3.274 | z sum, 1440371_at --- ([2]; ID, LN, Module#(LN) 8): 3.29 | z sum, 1456346_at --- ([2]; ID, LN, Module#(LN) 9): 3.455 | z sum, 1425105_at Rbp3 ([2]; ID, LN, Module#(LN) 10): 3.333 | z sum, 1455796_x_at Olfm1 ([2]; ID, LN, Module#(LN) 11): 3.262 | z sum, 1443302_at --- ([2]; ID, LN, Module#(LN) 12): 3.407 | z sum, 1442518_at C030044O21Rik ([2]; ID, LN, Module#(LN) 14): 3.546 | z sum, 1419486_at Foxc1 ([2]; ID, LN, Module#(LN) 19): 3.344 | z sum, 1441344_at Erlin1 ([2]; ID, LN, Module#(LN) 21): 3.171 | z sum, 1423611_at Alpl ([2]; ID, LN, Module#(LN) 24): 3.194 | z sum, 1448179_at Usmg5 ([2]; ID, LN, Module#(LN) 24): 3.461 | z sum, 1458457_at --- ([2]; ID, LN, Module#(LN) 26): 3.147 | z sum, 1450377_at Thbs1 ([2]; ID, LN, Module#(LN) 28): 3.002 | z sum, 1443853_x_at Sfmbt1 ([2]; ID, LN, Module#(LN) 32): 3.51 | z sum, 1443392_at Trpv1 ([2]; ID, LN, Module#(LN) 33): 3.184 | z sum, 1440475_at AW011738 ([2]; ID, LN, Module#(LN) 36): 3.038 | z sum, 1416380_at Mov10 ([2]; ID, LN, Module#(LN) 37): 3.277 | z sum, 1421008_at Rsad2 ([2]; ID, LN, Module#(LN) 37): 3.221 | z sum, 1421009_at Rsad2 ([2]; ID, LN, Module#(LN) 37): 3.209 | z sum, 1424339_at Oasl1 ([2]; ID, LN, Module#(LN) 37): 3.198 | z sum, 1426013_s_at Plekha4 ([2]; ID, LN, Module#(LN) 37): 3.228 | z sum, 1436058_at Rsad2 ([2]; ID, LN, Module#(LN) 37): 3.281 | z sum, 1436472_at Slfn9 ([2]; ID, LN, Module#(LN) 37): 3.595 | z sum, 1447241_at --- ([2]; ID, LN, Module#(LN) 37): 3.033 | z sum, 1416039_x_at Cyr61 ([2]; ID, LN, Module#(LN) 39): 3.015 | z sum, 1418191_at Usp18 ([2]; ID, LN, Module#(LN) 40): 3.035 | z sum, 1418293_at Ifit2 ([2]; ID, LN, Module#(LN) 40): 3.02 | z sum, 1418580_at Rtp4 ([2]; ID, LN, Module#(LN) 40): 3.028 | z sum, 1419603_at Ifi204 ([2]; ID, LN, Module#(LN) 40): 3.659 | z sum, 1421911_at Stat2 ([2]; ID, LN, Module#(LN) 40): 3.137 | z sum, 1422006_at Eif2ak2 ([2]; ID, LN, Module#(LN) 40): 3.279 | z sum, 1422141_s_at Csprs///Gm15433///Gm2666///Gm7609///LOC100041903///LOC100503923 ([2]; ID, LN, Module#(LN) 40): 3.074 | z sum, 1423555_a_at Ifi44 ([2]; ID, LN, Module#(LN) 40): 3.551 | z sum, 1424444_a_at 1600014C10Rik ([2]; ID, LN, Module#(LN) 40): 3.108 | z sum, 1424607_a_at Gm4354 ([2]; ID, LN, Module#(LN) 40): 3.422 | z sum, 1424609_a_at Cwc22///Gm4354///Xdh ([2]; ID, LN, Module#(LN) 40): 3.429 | z sum, 1431095_a_at Herc6 ([2]; ID, LN, Module#(LN) 40): 3.065 | z sum, 1432417_a_at Tspan2 ([2]; ID, LN, Module#(LN) 40): 3.906 | z sum, 1439886_at --- ([2]; ID, LN, Module#(LN) 40): 3.151 | z sum, 1450403_at Stat2 ([2]; ID, LN, Module#(LN) 40): 3.389 | z sum, 1451777_at Ddx60 ([2]; ID, LN, Module#(LN) 40): 3.02 | z sum, 1452349_x_at Ifi205///Mnda ([2]; ID, LN, Module#(LN) 40): 3.123 | z sum, 1453196_a_at Oasl2 ([2]; ID, LN, Module#(LN) 40): 3.123 | z sum, 1453299_a_at Pnp///Pnp2 ([2]; ID, LN, Module#(LN) 40): 3.12 | z sum, 1453757_at Herc6 ([2]; ID, LN, Module#(LN) 40): 3.183 | z sum, 1456164_at AW011738 ([2]; ID, LN, Module#(LN) 40): 3.347 | z sum, 1457035_at Al607873 ([2]; ID, LN, Module#(LN) 40): 3.377 | z-score of fold change, 1460069_at Smc6 ([2]; ID, LN, samples x1-x3, Module#(LN) 7): 0.716 and 1.173 and 1.385 | z-score of fold change, 1442518_at C030044O21Rik ([2]; ID, LN, samples x1-x3, Module#(LN) 14): 0.953 and 1.161 and 1.432 | z-score of fold change, 1423611_at Alpl ([2]; ID, LN, samples x1-x3, Module#(LN) 24): 0.707 and 1.244 | z-score of fold change, 1436472_at Slfn9 ([2]; ID, LN, samples x1-x3, Module#(LN) 37): 1.143 and 1.047 and 1.405 | z-score of fold change, 1419603_at Ifi204 [2, 3]: 1.185 and 1.269 and 1.205 | z-score of fold change, 1422006_at Eif2ak2 [2, 3]: 1.174 and 1.037 and 1.068 | z-score of fold change, 1424607_a_at Gm4354 [2, 3]: 1.005 and 1.314 and 1.103 | z-score of fold change, 1424609_a_at Cwc22///Gm4354///Xdh [2, 3]: 1.178 and 1.294 and 0.958 | z-score of fold change, 1432417_a_at Tspan2 [2, 3]: 1.133 and 1.404 and 1.369 | z-score of fold change, 1451777_at Ddx60 [2, 3]: 0.83 and 1.215 and 0.975 | z-score of fold change, 1457035_at Al607873 [2, 3]: 0.908 and 1.231 and 1.239 | interferon induction relative to adjuvants targeting the same receptor ([2]; LN, z-scores and 40 module mapping): relatively stronger interferon inducer than K3 or K3SPG | Z score of gene expression, Adar (probe 1425405_a_at) [2, 4]: −0.1 and −0.3 (2×) | Z score of gene expression, Adar (probe 1434268_at) [2, 4]: −0.3 (2×) and −0.4 | Z score of gene expression, Ddx58 (probe 1436562_at) [2, 4]: −0.4 (2×) and −0.1 | Z score of gene expression, Ddx58 (probe 1456890_at) [2, 4]: −0.3 (2×) and −0.4 | Z score of gene expression, Eif2ak2 (probe 1422005_at) [2, 4]: −0.5 and −0.4 (2×) | Z score of gene expression, G3bp2 (probe 1421323_a_at) [2, 4]: −0.5 and −0.4 (2×) | Z score of gene expression, Gm9706///Isg15 (probe 1431591_s_at) [2, 4]: −0.5 | Z score of gene expression, H2-T10///H2-T22///H2-T9 (probe 1449875_s_at) [2, 4]: −0.4 and −0.3 and −0.2 | Z score of gene expression, Ifih1 (probe 1426276_at) [2, 4]: −0.5 (2×) and −0.3 | Z score of gene expression, Ifit1 (probe 1449025_at) [2, 4]: −0.5 | Z score of gene expression, Ifit1 (probe 1450783_at) [2, 4]: −0.5 and −0.4 (2×) | Z score of gene expression, Irf7 (probe 1417244_a_at) [2, 4]: −0.3 (2×) and −0.2 | Z score of gene expression, Irgm1 (probe 1418825_at) [2, 4]: −0.5 (2×) and −0.3 | Z score of gene expression, Mndal (probe 1426906_at) [2, 4]: −0.5 and −0.4 and −0.3 | Z score of gene expression, Pml (probe 1448757_at) [2, 4]: −0.7 and −0.4 and −0.3 | Z score of gene expression, Pml (probe 1456103_at) [2, 4]: −0.4 and −0.3 (2×) | Z score of gene expression, Rnf213 (probe 1455500_at) [2, 4]: −0.4 | Z score of gene expression, Rsad2 (probe 1436058_at) [2, 4]: −0.5 | Z score of gene expression, Shisa5 (probe 1423986_a_at) [2, 4]: −0.5 and −0.6 and −0 | Z score of gene expression, Shisa5 (probe 1437503_a_at) [2, 4]: −0.4 (2×) and 0.15 | Z score of gene expression, Stat1 (probe 1450033_a_at) [2, 4]: −0.5 (2×) and −0.4 | Z score of gene expression, Stat1 (probe 1450034_at) [2, 4]: −0.5 | Z score of gene expression, Tdrd7 (probe 1426716_at) [2, 4]: −0.4 (2×) and −0.1 | Z score of gene expression, Tor1aip2 (probe 1418115_s_at) [2, 4]: −0.4 and −0.6 and −0.1 | Z score of gene expression, Tor1aip2 (probe 1418116_at) [2, 4]: −0.4 and −0.5 and −0.2 | Z score of gene expression, Tor1aip2 (probe 1435526_at) [2, 4]: −0.4 (2×) and −0.5 | Z score of gene expression, Trim12a (probe 1437432_a_at) [2, 4]: −0.4 (2×) and −0.5 | Z score of gene expression, Uba7 (probe 1426970_a_at) [2, 4]: −0.8 and −0.6 and −0.5 | distribution/strength of gene responses between local LNs and systemic organs (LV, SP) (LV, SP and LNs; 6 h after i.d. (local) administration): acted on local LNs but not in the systemic remote organs | adjuvant group (cluster) within the adjuvant gene space (LV, SP and LNs; hierarchical clustering, LV, SP and/or LNs): G5
